For orientation: IC50 means the concentration that inhibits the measured activity by half.

Square brackets hold non-standard residues; d marks the D form. Peptide text beside a SMILES is read from it. * marks the point of attachment. Dolaproine = CO[C@@H]([C@@H]1CCCN1)[C@@H](C)C(=O)O; Dil = CC[C@H](C)[C@H](NC)[C@@H](CC(=O)O)OC; X1 = C[C@@H](N*)[C@@H](O)c1ccccc1; NMeV = CN[C@H](C(=O)O)C(C)C

Common to all, as to format: cell-based
Test [1] has as its system HCT116. Briefly: In vitro killing by humanized antibody-vc-MMAE conjugate (CellTiter-Glo, 120 h). Here is the method: (§1) The colorectal cancer cells HCT116 and breast cancer cells HCC1806 were counted separately, adjusted to 3000 cells/well and plated in 96-well plates overnight. Conjugates were added at a final concentration of 200 nM to 0.000512 nM (a 5-fold dilution across 9 concentration points), totaling 200 µL, cultured at 37°C in a CO2 incubator for 120 h, half of the medium (100 µL) was discarded, and 100 µL of CellTiter-Glo Luminescent Cell Viability assay reagent (Promega, cat # G7570) was added to detect signal values on a BMG microplate reader. The inhibition activity of antibody on tumor cell growth was calculated by graphpad fitting based on the signal value and antibody concentration, and the results are shown in FIGS. 6a and 6b and Tables 19 and 20. Table 19 DAR value of anti-CDCP1 humanized antibody-vc-MMAE conjugate and its IC50 value for HCC1806

The next test has as its system HCC1806. The test is described as above. Here is the method: as §1
A further test relates to PC3. Briefly: In vitro killing by chimeric antibody-vc-MMAE conjugate (CellTiter-Glo, 120 h). The note with it: PC3 (120 h). The protocol: The specific steps were: Colorectal cancer cells HCT116, breast cancer cells MDA-MB-231, prostate cancer cells PC3, MCF7 cells were respectively counted, adjusted to 3000 cells/well, and plated onto 96-well plates overnight; Conjugates were added at a final concentration of 8 nM to 0.000512 nM (a 5-fold dilution across 7 concentration points), totaling 200 µL, […], half of the medium (100 µL) was discarded, and 100 µL of CellTiter-Glo Luminescent Cell Viability assay reagent (Promega, cat # G7570) was added to detect signal values on a BMG microplate reader. The inhibition activity of antibody on tumor cell growth was calculated by graphpad fitting based on the signal value and antibody concentration, and the results are shown in FIG. 5 and Table 15. Table 15 IC50 value of anti-CDCP1 chimeric antibody -vcMMAE conjugate on tumor cells
Background: ATP-based viability assays read luminescence as a measure of living cells.

The test system of test [2] is HCT116. The description is as above. The protocol:
(§2) The specific steps were: Colorectal cancer cells HCT116, breast cancer cells MDA-MB-231, prostate cancer cells PC3, MCF7 cells were respectively counted, adjusted to 3000 cells/well, and plated onto 96-well plates overnight; Conjugates were added at a final concentration of 8 nM to 0.000512 nM (a 5-fold dilution across 7 concentration points), totaling 200 µL, cultured at 37 °C in a CO2 incubator for 120 h, half of the medium (100 µL) was discarded, and 100 µL of CellTiter-Glo Luminescent Cell Viability assay reagent (Promega, cat # G7570) was added to detect signal values on a BMG microplate reader. The inhibition activity of antibody on tumor cell growth was calculated by graphpad fitting based on the signal value and antibody concentration, and the results are shown in FIG. 5 and Table 15. Table 15 IC50 value of anti-CDCP1 chimeric antibody -vcMMAE conjugate on tumor cells

The next test relates to MCF7. The test is described as above. The note with it: MCF7 (120 h), cells that do not express CDCP1. Here is the method: as §2
A further test deals with MDA-MB-231. The test is described as above. The note with it: MDA-MB-231 (120 h). The protocol: as §2

With `CC[C@H](C)[C@@H]([C@@H](CC(=O)N1CCC[C@H]1[C@H](OC)[C@@H](C)C(=O)N[C@H](C)[C@@H](O)c1ccccc1)OC)N(C)C(=O)[C@@H](NC(=O)[C@@H](NC)C(C)C)C(C)C` [MMAE] (H-[NMeV]V[Dil][Dolaproine]-X1), the IC50 with HCT116 [1] amounted to 0.283 nM; in the test on HCC1806, 0.053 nM; in the test with PC3 it was 0.00101 nM; in the test on HCT116 [2], 0.108 nM; with MCF7, 0.0777 nM; with MDA-MB-231, 0.168 nM.

The record behind these values is EP4524159A1, “ANTIBODY AND USE THEREOF” (Sichuan Huiyu Pharmaceutical Co., Ltd., priority 2022, dated 2023).
